# Measured values from patent publication US7012095B2, “Compounds for modulating cell proliferation” (HSC Research and Development Limited, priority 2000, dated 2006).
# Experiments:
# Format in all cases: cell-based
# normal bone marrow cells = experiment: CFU-GEMM assay, normal bone marrow differentiation in culture
# Procedure: The CFU-GEMM assay was performed according to Fauser and Messner (1978, Blood, 52(6) 143–8) and Messner and Fausser (1980, Blut, 41(5) 327–33) with some variations. In brief, heparinized bone marrow cells were layered over Percoll (1.077 gm/ml) (Pharmacia Fine Chemical, Piscataway N.J.) and centrifuged at 400 g at 4° C. for 10 minutes to remove neutrophils and RBCs. The fractionated BM cells at 2×10^5 cells/ml were cultured in IMDM (OCI, Toronto) containing 0.9% (vol/vol) methylcellulose supplemented with 30% FCS (Cansera Rexdale, ON.) or normal human plasma, a cocktail of cytokines containing G-CSF (10 ng/ml, Amgen), IL-3 (40 U/ml, Immunex), MGF (50 ng/ml, Immunex), Erythropoietin (2 u/ml, Epprex) or TPO (10 ng/ml, Amgen), 5×10^−5M β-2-mercaptoethanol and the specified concentration of CR4. The culture mixture was plated in 1 ml volumes into 35 mm petri dishes and incubated at 37° C., 5% CO2 in a humidified atmosphere. All cultures were evaluated at 14 days for the number of BFU-E colonies (defined as aggregates of more than 500 hemoglobinized cells or, 3 or more erythroid subcolonies), CFU-GM colonies (defined as granulocyte or monocyte-macrophage cells or both), CFU-Meg colonies (comprising 4 or more megakaryocytes) and CFU-GEMM colonies (a mixed population comprising of all elements).
# The CFU-GEMM assay was performed according to Fauser and Messner (1978, Blood, 52(6) 1243–8) and Messner and Fausser (1980, Blut, 41(5) 327–33) with some variations. In brief, heparinized bone marrow cells were layered over Percoll (1.077 gm/ml) (Pharmacia Fine Chemical, Piscataway N.J.) and centrifuged at 400 g at 4° C. for 10 minutes to remove neutrophils and RBCs. […] All cultures were evaluated at 14 days for the number of BFU-E colonies (defined as aggregates of more than 500 hemaglobinized cells or, 3 or more erythroid subcolonies) and CFU-C colonies (defined as granulocyte or monocyte-macrophage cells or both).
# The CFU-GEMM assay was performed according to Fauser and Messner (1978, Blood, 52(6) 1243–8) and Messner and Fausser (1980, Blut, 41(5) 327–33) with some variations (British Journal of Haematology, 1992, 80, p40–48). […] All cultures were evaluated at 14 days for the number of BFU-E colonies (defined as aggregates of more than 500 hemoglobinized cells or, 3 or more erythroid subcolonies) and CFU-C colonies (defined as granulocyte or monocyte-macrophage cells or both).
# OCI-LY2 lymphoma cells = experiment: In vitro purging of OCI-Ly2 lymphoma cells; details: 5 hours exposure, FIG. 16
# Procedure: For the purging assay, the cells were resuspended in complete medium with or without CR4 as indicated and incubated at 37° C., 5% CO2 for 0–5 hours. Cells were then washed thoroughly with medium to remove CR4, resuspended and plated in 1 ml volumes at 5×10^3 cells/ml, in the absence of exogenous growth factors, into 35 mm petri dishes (Nunc, Gibco) containing IMDM (OCI, Toronto) plus 20% human cord blood plasma in 0.9% (vol/vol) methylcellulose (Fluka, Switzerland). Cultures were set at 37° C., 5% CO2 in a humidified atmosphere. Colonies consisting of more than 20 cells were counted at 5 days or earlier using an inverted microscope.
# Ly-MN lymphoma cells = experiment: Killing of Ly-MN lymphoma cells in colony culture; details: colonies at 5 days; FIG. 5
# Procedure: Ly-MN cells were plated in 1 ml volumes, in the absence of exogenous growth factors, into 35 mm petri dishes (Nunc, Gibco) containing IMDM (OCI, Toronto) plus 20% human cord blood plasma in 0.9% (vol/vol) methylcellulose (Fluka, Switzerland) and the indicated concentrations of CR4. Cultures were set at 37° C., 5% CO2 in a humidified atmosphere. Colonies consisting of more than 20 cells were counted at 5 days or earlier using an inverted microscope.
compound,measurement,setting,value
"N#C/C(=C\C=C\c1ccc(O)c(O)c1)C(=O)NCc1ccccc1 [CR4, (E,E)-2-(Benzylamido)-3-(3,4-dihydroxystyryl)acrylonitrile]",effect upon normal cells,normal bone marrow cells; at concentrations equivalent to those active on the cancer cells of the same example,no effect
same,toxicity to normal cells,normal bone marrow cells; until concentrations of 10–20 μM or greater were achieved,minimal toxicity
same,killing of OCI-Ly2 cells,OCI-LY2 lymphoma cells; 12.5 μM,significant killing
same,killing of OCI-Ly2 cells,OCI-LY2 lymphoma cells; 25–50 μM,90%
same,concentration by which inhibition was effected,Ly-MN lymphoma cells,2.5 µM
